Here are results for twelve compounds from ChEMBL document CHEMBL2016447, “Cyclopropyl Carboxamides: A New Oral Antimalarial Series Derived from the Tres Cantos Anti-Malarial Set (TCAMS)” (ACS Med Chem Lett, 2011).

Data set [1] deals with Plasmodium falciparum. As to the kind of experiment: Antiplasmodial activity against Plasmodium falciparum 3D7 infected in human erythrocytes assessed as inhibition of [3H]hypoxanthine incorporation after 24 hrs by microbeta counter. The class given is functional, organism-based.
For data set [2], the system named is Liver microsomes. As to the kind of experiment: Intrinsic clearance in human liver microsomes assessed per gram of protein at 100 uM by HPLC analysis. The data set is classed as ADME, Microsome. Background: Liver microsomes are a subcellular fraction often used to study metabolism.
Data set [3] can be described thus: Lipophilicity, log D of the compound by chromatographic hydrophobicity index assay. The data set is classed as physicochemical.
Data set [4] is described as follows: Half life in human liver microsomes at 100 uM by HPLC analysis. The class given is ADME, Microsome.
Data set [5] relates to Liver. The data set is described as follows: Intrinsic clearance in mouse liver microsomes assessed per gram of protein at 100 uM by HPLC analysis. The class given is ADME, Microsome.
Data set [6] in a line: Half life in mouse liver microsomes at 100 uM by HPLC analysis. The data set is classed as ADME, Microsome.
Data set [7] deals with Plasmodium falciparum. As to the kind of experiment: Antiplasmodial activity Plasmodium falciparum 3D70087/N9 infected in NODscidIL2Rgammac-/- mouse assessed as reduction of parasitemia administered 3 days after infection measured on day 3 to 7 by flow cytometry. The data set is classed as functional. The settings on record: 3D70087/N9, 72 h. (A flow cytometer gives signals particle by particle.)

The nature of data set [8]: Protein binding in mouse plasma. The data set is classed as ADME, cell-free. The settings on record: read-out: PPB (converted).
The nature of data set [9]: Cmax in CD1 mouse at 20 mg/kg, po administered with 1% methylcellulose in water by LC/MS analysis. The class given is ADME, organism-based. Also noted: dose 20 mg/kg, route oral. The settings on record: in vivo.
Data set [10] in a line: Protein binding in human plasma. The data set is classed as ADME, cell-free. The settings on record: read-out: PPB.
In data set [11] the test system is Mus musculus. As to the kind of experiment: AUC (0 to t) in CD1 mouse at 20 mg/kg, po administered with 1% methylcellulose in water by LC/MS analysis. The data set is classed as ADME, organism-based. Further details: dose 20 mg/kg, route oral. The settings on record: in vivo.
The target of data set [12] is Cytochrome P450 2C9 (Homo sapiens, UniProt P11712). As to the kind of experiment: Inhibition of CYP2C9. The class given is ADME.
Sequence of Cytochrome P450 2C9 (P11712 whole entry): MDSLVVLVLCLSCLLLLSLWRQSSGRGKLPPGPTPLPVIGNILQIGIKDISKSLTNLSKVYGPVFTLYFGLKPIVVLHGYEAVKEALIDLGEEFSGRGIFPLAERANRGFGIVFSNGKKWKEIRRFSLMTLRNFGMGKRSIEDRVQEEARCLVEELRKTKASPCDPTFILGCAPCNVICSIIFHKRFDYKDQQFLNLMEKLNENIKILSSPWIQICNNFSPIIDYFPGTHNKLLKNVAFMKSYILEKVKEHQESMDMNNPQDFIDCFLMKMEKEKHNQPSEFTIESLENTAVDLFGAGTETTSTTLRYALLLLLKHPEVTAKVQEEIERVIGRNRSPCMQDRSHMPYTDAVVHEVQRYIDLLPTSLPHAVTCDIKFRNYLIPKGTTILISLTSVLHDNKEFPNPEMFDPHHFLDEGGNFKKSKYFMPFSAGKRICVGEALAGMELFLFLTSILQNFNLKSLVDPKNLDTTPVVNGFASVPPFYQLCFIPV
Data set [13] has as its target T1, Nuclear receptor subfamily 1 group I member 2 (Homo sapiens, UniProt O75469).
T1 sequence (O75469 whole entry): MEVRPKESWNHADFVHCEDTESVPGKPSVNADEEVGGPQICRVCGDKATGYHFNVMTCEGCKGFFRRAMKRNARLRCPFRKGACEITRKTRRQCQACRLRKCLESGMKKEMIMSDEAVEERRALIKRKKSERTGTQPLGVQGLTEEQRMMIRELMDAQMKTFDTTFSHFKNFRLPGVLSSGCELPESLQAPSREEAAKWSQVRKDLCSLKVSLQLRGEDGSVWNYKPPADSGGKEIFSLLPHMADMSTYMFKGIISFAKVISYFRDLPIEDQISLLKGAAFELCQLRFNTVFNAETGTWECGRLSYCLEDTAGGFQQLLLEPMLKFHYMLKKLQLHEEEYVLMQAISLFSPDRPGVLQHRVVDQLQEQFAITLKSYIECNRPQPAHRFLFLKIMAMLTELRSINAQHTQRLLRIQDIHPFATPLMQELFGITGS
The data set is described as follows: Activity at PXR at 2.5 uM.

For data set [14], the system named is Mus musculus. The data set is described as follows: AUC (0 to t) in CD1 mouse at 2 mg/kg, iv administered with 20% encapsine in water by LC/MS analysis. The settings on record: in vivo.
Data set [15] in a line: Solubility of the compound in DMSO by chemiluminescent nitrogen detection assay. The data set is classed as physicochemical.
Data set [16] has as its target Cytochrome P450 2D6 (Homo sapiens, UniProt P10635). The data set is described as follows: Inhibition of CYP2D6. The class given is ADME.
The target in data set [17] is Cytochrome P450 3A4 (Homo sapiens, UniProt P08684). As to the kind of experiment: Inhibition of CYP3A4. The data set is classed as ADME.
Sequence of Cytochrome P450 3A4 (P08684 whole entry): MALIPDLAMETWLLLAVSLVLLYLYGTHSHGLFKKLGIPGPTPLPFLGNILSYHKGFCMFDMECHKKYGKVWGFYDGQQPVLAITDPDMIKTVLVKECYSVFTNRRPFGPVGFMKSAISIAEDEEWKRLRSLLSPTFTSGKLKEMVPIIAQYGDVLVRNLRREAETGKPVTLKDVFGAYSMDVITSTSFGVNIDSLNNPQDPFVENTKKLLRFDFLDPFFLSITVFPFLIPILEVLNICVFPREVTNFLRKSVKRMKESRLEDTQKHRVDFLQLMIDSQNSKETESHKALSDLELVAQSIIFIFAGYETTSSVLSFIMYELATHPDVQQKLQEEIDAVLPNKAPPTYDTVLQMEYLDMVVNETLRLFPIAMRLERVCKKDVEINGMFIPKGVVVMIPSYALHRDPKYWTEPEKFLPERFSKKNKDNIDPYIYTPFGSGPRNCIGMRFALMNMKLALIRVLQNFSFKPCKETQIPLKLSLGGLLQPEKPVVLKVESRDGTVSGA
Data set [18] is described as follows: Volume of distribution in CD1 mouse at 2 mg/kg, iv and 20 mg/kg, po by LC/MS analysis. The settings on record: in vivo.
For data set [19], the target named is Cytochrome P450 2C19 (Homo sapiens, UniProt P33261). The data set is described as follows: Inhibition of CYP2C19. The data set is classed as ADME.
Sequence of Cytochrome P450 2C19 (P33261 whole entry): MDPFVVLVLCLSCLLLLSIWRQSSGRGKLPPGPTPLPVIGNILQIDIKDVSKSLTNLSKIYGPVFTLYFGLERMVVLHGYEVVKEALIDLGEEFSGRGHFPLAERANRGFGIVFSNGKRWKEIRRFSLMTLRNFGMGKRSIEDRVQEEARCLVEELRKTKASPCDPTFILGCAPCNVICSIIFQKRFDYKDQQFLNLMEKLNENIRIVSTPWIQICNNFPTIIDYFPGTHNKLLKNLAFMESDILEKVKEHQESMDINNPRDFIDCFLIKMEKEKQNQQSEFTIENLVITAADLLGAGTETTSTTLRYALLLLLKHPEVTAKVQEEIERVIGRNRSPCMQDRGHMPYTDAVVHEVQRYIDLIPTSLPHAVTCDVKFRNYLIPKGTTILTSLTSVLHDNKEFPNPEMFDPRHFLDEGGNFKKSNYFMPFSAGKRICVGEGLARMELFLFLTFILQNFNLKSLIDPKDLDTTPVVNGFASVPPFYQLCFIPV
Data set [20] can be described thus: Half life in CD1 mouse at 2 mg/kg, iv administered with 20% encapsine in water by LC/MS analysis. The settings on record: in vivo.
A short description of data set [21]: Oral bioavailability in CD1 mouse at 20 mg/kg administered with 1% methylcellulose in water by LC/MS analysis. The data set is classed as ADME, organism-based. The settings on record: in vivo.
The nature of data set [22]: Clearance in CD1 mouse at 2 mg/kg, iv and 20 mg/kg, po by LC/MS analysis. The settings on record: in vivo.
Data set [23] relates to Plasmodium falciparum. The data set is described as follows: Antiplasmodial activity against Plasmodium falciparum 3D7 by parasite lactate dehydrogenase assay. The data set is classed as functional, organism-based.
Data set [24] relates to Mus musculus. The data set is described as follows: AUC (0 to t) in CD1 mouse at 2 mg/kg, iv administered with 3% solutol, 7% PEG in saline by LC/MS analysis. The data set is classed as ADME, organism-based, Plasma. Also noted: dose 2 mg/kg, route intravenous. The settings on record: in vivo.
The nature of data set [25]: Volume of distribution in CD1 mouse at 2 mg/kg, iv and 20 mg/kg, po by LC/MS analysis. The data set is classed as ADME, organism-based. The settings on record: in vivo.
A short description of data set [26]: Half life in CD1 mouse at 2 mg/kg, iv administered with 3% solutol, 7% PEG in saline by LC/MS analysis. The class given is ADME, organism-based. Further details: dose 2 mg/kg, route intravenous. The settings on record: in vivo.
For data set [27], the target named is T1, Nuclear receptor subfamily 1 group I member 2. The data set is described as follows: Activity at PXR at 1 uM.
Data set [28] concerns the target 3',5'-cyclic-AMP phosphodiesterase 4B (Homo sapiens) (UniProt Q07343). The data set is described as follows: Activity of PDE4B at 0.3 uM.
Data set [29] can be described thus: Clearance in CD1 mouse at 2 mg/kg, iv and 20 mg/kg, po by LC/MS analysis. The class given is ADME, organism-based. The settings on record: in vivo.

Each structure is given as a SMILES string. Converted amounts (≈) assume the structure as drawn. The source made the active and inactive calls. No cut-off for these calls is given here.

Sequence of Cytochrome P450 2D6 (P10635 whole entry): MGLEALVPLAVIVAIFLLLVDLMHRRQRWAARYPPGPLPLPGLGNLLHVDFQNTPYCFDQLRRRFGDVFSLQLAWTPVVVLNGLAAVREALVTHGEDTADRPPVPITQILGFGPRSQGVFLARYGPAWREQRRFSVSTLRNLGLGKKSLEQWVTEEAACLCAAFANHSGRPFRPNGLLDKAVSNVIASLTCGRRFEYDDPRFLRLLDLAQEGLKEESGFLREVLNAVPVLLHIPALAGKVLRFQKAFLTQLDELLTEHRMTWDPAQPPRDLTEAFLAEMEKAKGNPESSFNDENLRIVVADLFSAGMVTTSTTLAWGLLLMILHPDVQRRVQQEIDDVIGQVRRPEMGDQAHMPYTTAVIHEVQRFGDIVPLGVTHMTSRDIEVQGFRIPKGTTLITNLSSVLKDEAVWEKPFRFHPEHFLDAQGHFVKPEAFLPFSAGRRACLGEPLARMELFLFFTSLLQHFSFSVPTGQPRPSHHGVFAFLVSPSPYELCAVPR
Sequence of 3',5'-cyclic-AMP phosphodiesterase 4B (Homo sapiens) (Q07343 whole entry): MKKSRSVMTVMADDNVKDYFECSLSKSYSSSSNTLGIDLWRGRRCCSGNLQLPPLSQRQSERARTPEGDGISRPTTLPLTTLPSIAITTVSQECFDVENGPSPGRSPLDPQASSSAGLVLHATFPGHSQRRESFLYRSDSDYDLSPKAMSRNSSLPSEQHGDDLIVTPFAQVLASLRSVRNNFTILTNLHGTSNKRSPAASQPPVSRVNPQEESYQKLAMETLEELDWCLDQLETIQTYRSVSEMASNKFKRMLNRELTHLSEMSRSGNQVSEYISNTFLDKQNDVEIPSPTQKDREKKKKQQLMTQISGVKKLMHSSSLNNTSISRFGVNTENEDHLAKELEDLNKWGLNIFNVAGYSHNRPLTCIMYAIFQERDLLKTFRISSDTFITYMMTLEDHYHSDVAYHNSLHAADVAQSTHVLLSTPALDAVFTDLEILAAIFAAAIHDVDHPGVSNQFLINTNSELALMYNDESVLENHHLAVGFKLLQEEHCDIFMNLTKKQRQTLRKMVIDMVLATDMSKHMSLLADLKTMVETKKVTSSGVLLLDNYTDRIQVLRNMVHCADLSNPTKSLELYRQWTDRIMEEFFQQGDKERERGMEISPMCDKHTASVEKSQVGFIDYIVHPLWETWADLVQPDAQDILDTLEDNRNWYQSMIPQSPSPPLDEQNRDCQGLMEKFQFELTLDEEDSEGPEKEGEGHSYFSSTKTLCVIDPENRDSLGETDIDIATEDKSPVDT

For the compound `CC(Oc1ccc(Cl)cc1)C(=O)Nc1cc(C(F)(F)F)ccc1-n1cncn1` (racemic), in data set [1], the IC50 (usually the midpoint of a concentration-inhibition curve) came to 394 nM. Moreover, the CLint is 3.3 mL/min/g in data set [2] and 4.1 mL/min/g in data set [5]. The chromatographic logD (usually a lipophilicity value derived from retention on a column) in [3] came to 3.84. The half-life (usually how long it takes for the measured level to halve) at 100 µM in data set [4] is 21.8 min; in data set [6], 13.6 min.
Turning to `CCN(CC)CCCC(C)Nc1ccnc2cc(Cl)ccc12` (configuration not stated) [CHLOROQUINE], in data set [7], the ED50 (usually the dose at which the effect has come halfway, by size or by number of responders) was 2 mg/kg.
Turning to `O=C(Nc1cc(Cl)ccc1-n1cncn1)C1(c2ccccc2)CC1`, the IC50 in [1] is 1700 nM.
Regarding `CC(Oc1cccc(Cl)c1)C(=O)Nc1cc(C(F)(F)F)ccc1-n1cncn1` (racemic), the IC50 in [1] is 327 nM. Also, the CLint in data set [2] was found to be 1.2 mL/min/g; in [5] it was 7.9 mL/min/g. Also, the half-life at 100 µM in [4] was over 30 min; in data set [6], 6.2 min.
The corresponding values for `CC(Oc1ccccc1)C(=O)Nc1cc(C(F)(F)F)ccc1-n1cncn1` (racemic) are 897 nM, 2.9 mL/min/g, 5.3 mL/min/g, 24.7 min and 12 min.
Turning to `CC(Oc1ccccc1Cl)C(=O)Nc1cc(C(F)(F)F)ccc1-n1cncn1` (racemic), in [1], the IC50 came to 190 nM. Also, the CLint in [2] was 1.6 mL/min/g; in [5], 5.6 mL/min/g. The half-life at 100 µM in data set [4] was over 30 min; in data set [6], 11.7 min.
For `O=C(Nc1cc(C(F)(F)F)ccc1-n1cncn1)C1(c2ccccc2)CC1`, the fraction unbound in data set [8] and in data set [10] was 0.01 throughout. For the same compound, in data set [1], the IC50 stood at 66 nM. Moreover, in data set [9], the Cmax – broadly, the maximum level reached in the sampled fluid or tissue – is 2340 ng/mL. Also, the AUCt in [11] is 9.71 µg/h/mL; in data set [14] it was 0.596 µg/h/mL. The INH in data set [12] was 7.9 µM; in data set [16], over 10 µM; in [17], over 10 µM; in [19] it was over 10 µM. For the same compound, the result in data set [13] was Active. Further, in data set [15], the concentration in solution (solubility) came to 100 µM (≈ 37.2 µg/mL). The chromatographic logD in data set [3] was found to be 3.83. In [7], the ED50 is over 50 mg/kg. In addition, the ED90 in data set [7] was over 50 mg/kg. Moreover, the Vd in [18] stood at 6.47 L/kg. In data set [20], this compound gave a half-life of 166 min. Besides, the bioavailability (commonly the share of a dose that reaches the circulation, judged against a reference dose that is usually intravenous) in [21] worked out at 81%. The clearance in data set [22] was determined as 29.7 mL/min/kg.
Regarding `Cc1cc(C)n2nc(C(=O)Nc3cc(C(F)(F)F)ccc3N3CCOCC3)nc2n1`, the figures for the 50% inhibitory concentration (IC50) in data set [23] and in data set [1] were 11 nM and over 5000 nM, respectively.
Consider `O=C(Nc1cc(C(F)(F)F)ccc1-n1cncn1)C1(c2cccc(C(F)(F)F)c2)CC1`, for which the fraction unbound in [8] was 0.006. The AUCt in data set [24] amounted to 2.23 µg/h/mL; in data set [11], 13.6 µg/h/mL. The peak level in data set [9] (Cmax) was 1090 ng/mL. In [25], this compound displayed a Vd of 11.9 L/kg. For the same compound, the INH in data set [12] is 6.3 µM; in data set [16] it was over 10 µM; in data set [17], over 10 µM; in data set [19] it was over 10 µM. The result in data set [13] and in data set [27] was Active. This compound gave a half-life in [26] of 612 min. Further, in [15], the concentration in solution (solubility) was 9 µM (≈ 3.96 µg/mL). In addition, in data set [28], the outcome was Active. In addition, in data set [7], the ED50 stood at 12 mg/kg. Moreover, the ED90 in [7] came to 20 mg/kg. The compound further gave a clearance in data set [29] of 14.3 mL/min/kg. In data set [21], this compound registered a bioavailability of 55%.
Consider `Cc1ccnc2nc(C(=O)Nc3cc(C(F)(F)F)ccc3N3CCCCC3)nn12`, for which the half-inhibitory concentration (IC50) in [23] was 73 nM; in [1], 3970 nM.
For `CC(Oc1ccc(Cl)cc1)C(=O)Nc1cc(C(F)(F)F)ccc1N1CCOCC1` (racemic), the IC50 in data set [1] was 439 nM. In data set [3], the chromatographic logD was 4.56.
Take `CC(Oc1cccc(C(F)(F)F)c1)C(=O)Nc1cc(C(F)(F)F)ccc1-n1cncn1` (racemic): the IC50 in [1] turned out to be 285 nM.
